The values below come from patent US8722634B2, “Use of compounds extracted from Momordica charantia L. in the manufacture of medicaments for prevention and treatment of diabetes and obesity” (Shanghai Institute of Materia Medica, Chinese Academy of …, priority 2008, dated 2014).

In assay [1] the test system is L6 muscle cells. Kind of assay: glucose uptake in L6 muscle cells (2-[3H]-deoxy-D-glucose). Format: cell-based. The conditions noted are these: 10 μM, 2 hours, p<0.05 vs control. As for the experimental part:
Testing the effect of momordicoside A on the glucose uptake in L6 muscle cells (FIG. 1)
After L6 cells were differentiated to myotube completely, they were incubated in serum-free DMEM containing 0.5% BSA for 16 hours. […] After that, they were washed with 1×PBS preheated at 37° C. twice, and 0.5% BSA Krebs buffer (NaCl 140 mM, KCl 5 mM, MgSO4 2.5 mM, CaCl2 1 mM, HEPES 20 mM, pH7.4) without or with insulin (final concentration 100 nM), followed by incubation at 37° C. for 40 minutes. A 2-[1,2-3H(N)]-deoxy-D-glucose solution (final concentration 0.5 μCi/ml) was added therein and incubated for 10 minutes at 37° C. Then the reaction was terminated by washing three times with ice-cold 1×PBS and 0.15 ml of 0.1% Triton was added therein for the lysis of the cells the counting in a liquid-scintillation counter. After the CPM value was corrected with the protein amount, the glucose uptake amount of L6 cells was calculated.
The data are shown in mean±standard error (X±SE) (n=3). The significance was shown as *p<0.05 compared with control groups under corresponding conditions.

In assay [2] the test system is alloxan-induced diabetic mice. Particulars: 400 mg/kg, effect reported was very mild; cited from earlier work.
Assay [3] has as its system glucose transporter 4 (GLUT4). Kind of assay: translocation of glucose transporter 4 (GLUT4) to the cell membrane in L6 myotubes. Format: cell-based. The conditions noted are these: 10 μM, 2 hours. The method, then: Effects of isolated compounds on the translocation of glucose transporter 4 (GLUT4) from cytosol to the cell membrane (FIG. 2)
After L6 cells were differentiated to myotube completely, they were treated for 2 hours with various test compounds, namely trihydroxycucurbita-5,23(E)-dien-19-al, 22(S),23(R),24(R),25-tetrahydroxycucurbita-5-ene, momordicoside A, momordicoside B (final concentration 10 μM, each) or 100 nM insulin (as positive control). The data were expressed as mean±standard error (X±SE) (n=3-4). The significance was shown as ***p<0.001 compared with solvent control groups.

In assay [4] the test system is adenosine monophosphate-activated protein kinase (AMPK). Briefly: AMPK activation (pACC, pAMPK) in 3T3-L1 adipose cells. Format: cell-based. The conditions noted are these: for activation of the AMPK signaling pathway (pACC, pAMPK): 10 μM, 60 minutes. As for the experimental part:
Testing the activities of trihydroxycucurbita-5,23(E)-diene-19-aldehyde and 22(S), 23(R),24(R),25-tetrahydroxy cucurbita-5-ene on adenosine monophosphate-activated protein kinase (AMPK) (FIG. 3)
3T3-L1 adipose cells was incubated for 60 minutes in a medium containing 10 μM compounds, or in a medium containing 2 mM 5-amino4-imidazolecarboxamide nucleotide (AIC, positive control) or DMSO as a solvent control, followed by being treated with 100 nM insulin for 2 minutes or 25 minutes. Then the proteins pACC and pAMPK in cell lysate were determined with corresponding antibodies. The total amount of protein 14-3-3 was used as the quality control for sample loading.
(§1) According the processes in experimental examples 2 and 3, 22(S),23(R),24(R),25-tetrahydroxycucurbita-5-ene was tested at different concentrations (10^−10, 10^−7, 10^−6, 10^−5 M).

For assay [5], the system named is glucose transporter 4 (GLUT4). Briefly: GLUT4 translocation in 3T3-L1 adipose cells. In kind it is cell-based. The method, then:
Dose-dependent effect of 22(S),23(R),24(R),25-tetrahydroxycucurbita-5-ene on GLUT4 translocation and the phosphorylation of AMPK in 3T3-L1 adipose cells (FIG. 4)
as §1
A. 10 μM 22(S),23(R),24(R),25-tetrahydroxycucurbita-5-ene or 100 nM insulin (positive control) was added in the differentiated 3T3-L1 adipose cells using DMSO (final concentration of DMSO: 0.2%) as a solvent with or without wortmanin (an inhibitor of monophosphoinositide 3-kinase), and the activity on GLUT4 translocation was determined as described in experimental example 2. The data were expressed in mean±standard error (X±SE). The significances were shown as *p<0.05 and **p<0.01 compared with the solvent control groups.

The subject of assay [6] is protein kinase B (Akt). Briefly: phosphorylation of protein kinase B [Akt (S473)] in 3T3-L1 adipose cells. Particulars: 10 μM, 30 minutes. In kind it is cell-based. The method, then: (§2) B. 3T3-L1 adipose cells and L6 muscle cells were incubated for 30 minutes in a medium containing 10 μM trihydroxycucurbita-5,23(E)-dien-19-al or 22(S),23(R),24(R),25-tetrahydroxycucurbita-5-ene, or a medium containing 100 nM insulin (positive control) or DMSO as a solvent control. The phosphorylation of protein kinase B [Akt (S473)] and the total protein kinase B (14-3-3) were determined with corresponding antibodies. The significances are shown as *p<0.05 and **p<0.01 compared with the solvent control groups.

Assay [7] has as its system protein kinase B (Akt). Briefly: phosphorylation of protein kinase B [Akt (S473)] in L6 muscle cells. Format: cell-based. Particulars: 10 μM, 30 minutes. As for the experimental part:
as §2

The mark [8] stands for this setting: tested at 10^−10, 10^−7, 10^−6, 10^−5 M.

momordicoside A: the “glucose uptake in L6 cells under the stimulus of insulin” value in assay [1] (100 nM insulin) is given as “increased significantly”. Also, the “glucose uptake in L6 cells at base level” value in assay [1] (without insulin) is on record as “increased significantly”.

With `CC(CC=CC(C)(C)O)C1CCC2(C)C3C=CC45OCC3(CCC12C)C4CCC(O)C5(C)C` (stereo not drawn) [5β, 19-epoxy-3β,25-dihydroxycucurbita-6,23(E)-diene], the hypoglycemic effect result in assay [2] is “showed hypoglycemic effect”.

Turning to `C[C@H]([C@H](O)[C@@H](O)[C@@H](O)C(C)(C)O)[C@H]1CC[C@@]2(C)C3CC=C4C(CC[C@H](O)C4(C)C)[C@]3(C)CC[C@]12C` (stereo partly drawn) [22(S),23(R),24(R),25-tetrahydroxycucurbita-5-ene], in assay [3], the “translocation of glucose transporter 4 (GLUT4) to the cell membrane” value is on record as “capable of promoting the translocation”. In assay [4], the “activation of the AMPK signaling pathway (pACC, pAMPK)” value was “capable of activating the AMPK signaling pathway significantly”. Besides, the “concentration at which the maximal effect on phosphorylation of AMPK was reached” value in assay [4] (setting [8]) is 10^−6 M. For the same compound, the “effect of wortmanin (PI3-kinase inhibitor) on the compound's activity on GLUT4 translocation” value in assay [5] (10 μM, with or without wortmanin) is “did not affect the activity”. Also, the “concentration at which the maximal effect on GLUT4 translocation was reached” value in assay [5] (setting [8]) was 10^−6 M. The “phosphorylation of protein kinase B [Akt (S473)]” value in assay [6] and in assay [7] was “not able to increase the phosphorylation of protein kinase B” throughout.

Turning to `C[C@H](C/C=C/C(C)(C)O)[C@H]1CC[C@@]2(C)C3[C@@H](O)C=C4C(CC[C@H](O)C4(C)C)[C@]3(C=O)CC[C@]12C` (stereo partly drawn) [trihydroxycucurbita-5,23(E)-dien-19-al], the “translocation of glucose transporter 4 (GLUT4) to the cell membrane” value in assay [3] is “capable of promoting the translocation”. In addition, in assay [4], the “activation of the AMPK signaling pathway (pACC, pAMPK)” value was “capable of activating the AMPK signaling pathway significantly”. Further, the “phosphorylation of protein kinase B [Akt (S473)]” value in assay [6] and in assay [7] was “not able to increase the phosphorylation of protein kinase B” each time. Moreover, the hypoglycemic effect entry in assay [2] is recorded as “showed hypoglycemic effect”.
